Reference: US20240148749A1 (priority 2021, published 2024)
Entries after “also recorded” stand apart in the source; their conditions may differ.

What was measured:
control and CLP mice [1] = assay: Novel Object Recognition test (NOR); assay type: in vivo, mouse; settings: septic (CLP) mice, systemic MnTBAP treatment
Description: (§1) Data shown are mean values (±SD). Gray bars represent MnTBAP-treated mice from either CLP or control groups, and black bars represent placebo-treated mice from either CLP or Control groups. Two-way analyses of variance (ANOVAs) (CLP vs Control×MnTBAP vs Placebo) were performed. When a significant interaction was observed, planned comparisons were performed for the CLP/Placebo group against the three other groups. The significance of the planned comparisons is indicated with asterisks (*p<0.05, **p<0.01, ***p<0.001, ****p<0.0001).
(§2) MnTBAP is commercially available: it is for example manufactured by Sigma-Aldrich, Calbiochem, etc. For use it is dissolved following the guidance provided by the manufacturer.
(§3) Twice a week after the CLP, survival mice were gently handled for at least four 5-min sessions to habituate to the experimenter. Then, 20 and 21 days after CLP, mice were submitted to the novel object location (NOL) and novel object recognition (NOR) tests. […]
(§4) The familiarization sessions consisted on 10 min of free exploration of two identical objects, placed inside the same open field arena that the mice had visited on the previous day. […] Then, the percentage of exploration of the new object was calculated, reflecting the retention of the familiar object memory at long-term (24 h). […]

[2] = Liu et al., 2013b; cited from earlier work
CLP mice = assay: Survival after cecal ligation and puncture (CLP) model of sepsis; assay type: in vivo, mouse; settings: CLP-MnTBAP mice, 24 h after CLP; MnTBAP 10 mg/kg IP every 12 h for 48 h
Description: A log-rank (Mantel-Cox) p value for trend was calculated.
(§5) We used peritonitis induced by CLP as a model of sepsis (Rittirsch et al., 2009). Briefly, animals were anesthetized with ketamine (Imalgene® 1000 100 mg/kg, Merial, France) and Xylazine (Rompun® 2% 20 mg/kg, Bayer, Germany) prior to surgery. After laparotomy, caecum was ligatured at the distal third with a 4.0 suture and the distal part was perforated twice with a 21 Gauge needle.
For use it is dissolved following the guidance provided by the manufacturer.
Clinical score was assessed 6, 12 and 24 hours and 21 days after CLP using a modified SmithKline Beecham, Harwell, Imperial College and Royal London Hospital phenotype assessment (SHIRPA) (Rogers et al., 1997) of the maximum score of fourteen. Weight, temperature and locomotor activity using an open field box were measured at the same time points. We determined survival rate twice a day for 21 days after CLP. The symptoms included in the a modified SmithKline Beecham, Harwell, Imperial College and Royal London Hospital phenotype assessment (SHIRPA) are tremors, periorbital exudates, piloerection, lethargy, vocalisation, positional passivity, no escapement to threat, long transfer arousal and diarrhoea. Each condition was scored from 0 to 2.
Experimental protocols were conducted in accordance with the French and European regulations on Animal Welfare and with Public Health Service recommendations. The experiments were performed on C57BL/6JRj mice (male and female) purchased from Janvier Laboratory. Mice were housed in cages in groups of 7, in a temperature (22±1.5° C.) and humidity-controlled environment, with a 12 h light/dark cycle. All animals used in the study were between 10 and 12 weeks old. Sample-size estimates for animal experiments were based on prior animal-modelling studies used in the Unit for the investigation of caecal ligation and puncture (CLP).
At the end, two groups were compared: CLP-Placebo, CLP-BMX-010. We determined survival rate twice a day for 4 days after CLP.”

brain tissue = assay: Cytokine and chemokine levels in mice brain at 21 days after CLP (Luminex); assay type: in vivo, mouse; settings: CLP vs control × MnTBAP vs placebo
Description: as §5, §2
Brain: snap frozen brain samples (n=6 per condition and per time point) were thawed, lysed by mechanical agitation (lysing matrix), and supernatant was aliquoted and stored at −80° C. until analysis.
These samples were processed for Luminex® multiple cytokine and chemokine analysis (Bio-Plex® Pro™ Mouse Cytokine Standard 23-flex, Group I and Standard 9-flex, Group II). Fifty microlitres of sample was analyzed on the Bio-flex system (Bio-Rad) in accordance with the manufacturers instructions. Data analyses for all assays were performed using the Bio-flex Manager software. […] Normalization was done by weight of the frozen brain sample.
The data represent the level of protein expression in pg mg^−1 of brain tissue using Luminex®. Control mice were non-operated but anesthetized. Median values of n=5 mice per group are represented. […]

control and CLP mice [3] = assay: Novel Object Location test (NOL); assay type: in vivo, mouse; settings: F(1,29)=0.0007, p=0.98; day 20
Description: as §1, §2, §3, §4

## O=C(O)c1ccc(/C2=C3\C=CC(=N3)/C(c3ccc(C(=O)O)cc3)=c3/cc/c4[n]3[Mn]([Cl])[n]3c2ccc3/C(c2ccc(C(=O)O)cc2)=C2/C=CC(=N2)\C=4c2ccc(C(=O)O)cc2)cc1 [MnTBAP, Manganese (III) tetrakis (4-benzoic acid)porphyrin chloride]
Control and CLP mice [1]
  cognition / long-term cognitive function: restored cognition; also recorded: successfully restores long-term cognitive function
[2]
  BBB penetration: poorly penetrates the BBB
CLP mice
  mice alive: 66%
Brain tissue
  measured brain tissue cytokines, two-way ANOVA: did not show any CLP vs control×MnTBAP vs placebo interaction, or difference linked to condition or treatment between the groups
Control and CLP mice [3]
  NOL exploration time, CLP vs control×MnTBAP vs placebo interaction: no significant CLP vs control×MnTBAP vs placebo interaction
